Values of other authors, collected in patent publication US20050123607A1, “Pharmaceutical formulation of valaciclovir” (priority 2003, published 2005).

Columns and labels:
[1] = oral administration
[2] = especially in its salt form

SMILES: CC(C)[C@H](N)C(=O)OCCOCn1cnc2c(=O)[nH]c(N)nc21 [valaciclovir]
- absorption from the gastrointestinal tract / bioavailability (in words) [1]: much improved bioavailability
- solubility (in words) [2]: very soluble
